Data on 2 molecules can be found in patent publication US8252290B2, “Herbal composition for treatment of insomnia and other related disorders and a method of preparing the same” (Vita Green Health Products Company Limited, priority 2008, dated 2012).

Counter-ions that a name gives are not always drawn.

Common to all, as to type: in vivo
For assay [1], the system named is mice. In words: Tail Suspension Test. The note with it: 20 mg/kg oral. On the procedure: (§1) The following three tests on mice were conducted to investigate the anti-depressant and anti-anxiety activities of the herbal composition of the present invention.
(§2) In all these tests, the test item was the herbal composition as described in Table 2 in the form of a powder. The reference item was Imipramine hydrochloride manufactured by Sigma-Aldrich, USA (for forced swimming and tail suspension tests), and Diazepam tablets supplied by Tianjin Lisheng Pharmaceutical Co. Ltd, China (for elevated plus maze test). Male mice weighing 18-22 g at the start of the study were obtained from the Guangdong Medical Laboratory Animal Center, China.
(§3) At the beginning of each test, the test item was administrated at three dose levels of 69, 208, and 624 mg per kg of mouse by oral route (gastric gavage). For the Forced Swimming Test and Tail Suspension Test, Imipramine was administrated at the dose level of 20 mg per kg of mouse by oral route (gastric gavage), whereas Diazepam was administrated at the dose level of 2 mg per kg of mouse by oral route (gastric gavage). The Control group only received physiological saline orally by gastric gavage.
When a mouse is suspended by its tail, its basic instinct first drives him to struggle, but this inescapable stress will eventually force it to develop an immobile posture. […]

Assay [2] relates to mice. In words: Forced Swimming Test. The note with it: 20 mg/kg oral. The text has this: After an initial period of vigorous activity, the mice adopt a characteristic immobile posture which is readily identifiable.
The test system of assay [3] is mice. In words: Elevated Plus Maze Test. The note with it: 2 mg/kg oral. On the procedure: as §1, §2, §3
In this common test for assessing anxiety, the mouse is initially placed in the center of an elevated plus-shaped maze consisting of 4 arms (2 open arms & 2 enclosed arms), with its head facing one of the two open arms. The basic measure is to determine the unconditioned response of the tested mouse to a potentially dangerous environment and the preference of the tested mouse for dark, enclosed places over bright places, and exposed places. Typically, the tested mice would avoid entering into open arms due to anxiety, and mice administrated with anxiolytic […] treatments would have decreased aversion to heights and open spaces.
In this test, two batches of mice were used and in each batch, the mice were allotted at random to five groups, each consisting of ten animals.
The ratio of open arm entry is the frequency of the times the mice entering the open arms to the total frequency of entry into both open and enclosed arms (in percentages). Likewise, the ratio of time spent in open arms is the proportion of time spent by the mice in the open arms to the total times spent in both open and enclosed arms (in percentages).

Turning to `CN(C)CCCN1c2ccccc2CCc2ccccc21` [Imipramine, Imipramine hydrochloride], the Time of immobility is given as 60.08 ± 16.67 s in assay [1] (First Batch, p<0.01 vs Control 115.89 ± 39.27); 52.66 ± 17.05 s in assay [1] (Second Batch, p<0.01 vs Control 100.76 ± 33.49); 43.92 ± 17.63 s in assay [2] (First Batch, p<0.01 vs Control 93.19 ± 31.07); 59.90 ± 17.40 s in assay [2] (Second Batch, p<0.01 vs Control 110.61 ± 28.03).
For the molecule `CN1C(=O)CN=C(c2ccccc2)c2cc(Cl)ccc21` [Diazepam], the Head dipping was 20.67 ± 10.42 times in assay [3] (First Batch, Control 16.2 ± 4.61) and 21.5 ± 6.15 times in assay [3] (Second Batch, p<0.01 vs Control 14.0 ± 4.64). Moreover, the “Ratio of time spent in open arms” value in assay [3] (First Batch, p<0.01 vs Control 31.94 ± 10.82) came out at 50.51 ± 10.58 %; in assay [3] (Second Batch, p<0.01 vs Control 29.82 ± 8.88), 47.52 ± 12.35 %. In addition, the “Ratio of open arms entry” value was determined as 51.27 ± 10.08 % in assay [3] (First Batch, p<0.01 vs Control 36.16 ± 6.13) and 52.48 ± 9.97 % in assay [3] (Second Batch, p<0.01 vs Control 33.66 ± 7.95).
